Test results: patent publication US11692222B2, “Animal model of non-alcoholic liver disease and composition of diagnosis, prevention or treatment for non-alcoholic liver disease” (KOREA ADVANCED INSTITUTE OF SCIENCE AND TECHNOLOGY, priority 2018, dated 2023)

What was measured:
[1] = tested on: DKO mice (Pten−/−;Sav1−/−); experiment: MK-2206 treatment of 3-week-old DKO mice for 2 weeks (fatty liver); assay type: in vivo, mouse; settings: 66 mg/kg i.p. every other day for 2 weeks, vs vehicle
Procedure: (§1) Adenovirus for overexpression of CRE, YAP5SA, TAZ4SA, or GFP (control) and AAV-saCas9-sgIrs2 or sgCtl in the mouse liver were injected into the tail vain of […], respectively. The mice were deprived of food for 16 hours at day 4 (YAP5SA, TAZ4SA, and GFP) or week 4 (CRE and GFP) after adenovirus injection. MK-2206 (Selleckchem; S1078) was prepared in 30% Captisol (CyDex Pharmaceuticals; RC-0C7) and administered to DKO mice by intraperitoneal injection at a dose of 66 mg/kg every other day for 2 weeks, beginning at 3 or 12 weeks of age.
Given the lack of treatments for NASH, the present inventors next asked whether pharmacological inhibition of AKT could ameliorate fatty liver and slow cancer progression in DKO mice. To this end, the present inventors administered the pan-AKT inhibitor MK-2206 (phase II clinical trials) intraperitoneally to 3-week-old DKO mice.
FIGS. 8b to 8d are graphs of the result of liver-to-body weight ratio percentage, the analysis of liver enzymes in the serum, the qPCR analysis of lipogenesis-related gene expression in the liver of control (white bars) and MK-2206 (red bars), respectively.

[2] = tested on: DKO mice (Pten−/−;Sav1−/−); experiment: MK-2206 treatment of 12-week-old DKO mice for 2 weeks (liver cancer); assay type: in vivo, mouse
Procedure: as §1
Further, to investigate the suppression of liver cancer, MK-2206 was injected to 12-week-old DKO mice that 80% of them had liver tumor (FIG. 1b). The graphs of FIG. 8f are the result of the result of liver-to-body weight ratio (F), liver tumor number and size (G), serum analysis (H) of the experiment shown in FIG. 8f. The graph representing the quantification analysis of Ki-67^+ hepatocytes of specimen is shown in FIG. 8h, and a graph representing the qPCR analysis of the expression of genes related to fibrosis (Acta2, desmin, and Tgfb), cell death or injury (Hmox1 and Gadd153), or inflammation (Tnfa) is shown in FIG. 8i.

[3] = 12-week-old DKO mice, 2 weeks treatment, vs vehicle

## NC1(c2ccc(-c3nc4ccn5c(=O)[nH]nc5c4cc3-c3ccccc3)cc2)CCC1 [MK-2206]
[1]
  expression of lipogenesis-related genes (Fasn, Acc1, Srebp1c), qPCR in liver: lower expression of lipogenesis-related genes
  fatty liver (macroscopic, H&E, Oil red O): less fatty liver
  liver fibrosis (Sirius red): reduced liver fibrosis
  liver function (liver enzymes in serum): improved liver function
  liver weight (liver-to-body weight ratio): decreased liver weight
[2]; 12-week-old DKO mice, 66 mg/kg i.p. every other day for 2 weeks, vs vehicle
  fatty liver and tumorigenesis: reduced fatty liver and tumorigenesis
[2]; [3]
  Ki-67-positive cells: fewer Ki-67-positive cells
  YAP expression (IHC): without a corresponding change in YAP expression
  expression of genes related to fibrosis (Acta2, desmin, Tgfb), cell death or injury (Hmox1, Gadd153) and inflammation (Tnfa), qPCR: reduced expression of genes related to fibrosis
  fibrosis (Picrosirius red): reduced fibrosis
  hepatocyte TAZ expression (IHC): lower levels of hepatocyte TAZ expression
  hepatocytes with excessive lipid droplets (H&E): fewer hepatocytes with excessive lipid droplets
  liver color: normalized liver color
  liver size (liver-to-body weight ratio): reduced liver size
  tumor nodule size: reduction in tumor nodule size
[2]; overall conclusion, DKO mice treated from 3 or 12 weeks of age
  development of NAFLD and liver cancer in DKO mice: markedly attenuates the development of NAFLD and liver cancer
